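Test compounds were applied to cells in 96-well plates for 48 hours at 5 doses. GI50 is the concentration that inhibits growth by half.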 Active and inactive are the calls of the source. Rule as the data show it: active = GI50 up to about 1.1 µM and inactive = higher.
Assays:
Assay in all cases: inhibition of tumour cell growth, NCI panel, 48 h
DMS-114 = system: DMS-114
DMS-273 = system: DMS-273
HOP-18 = system: HOP-18
KM-20L2 = system: KM-20L2
LXFL 529 = system: LXFL 529
M19-MEL = system: M19-MEL
RXF 631 = system: RXF 631
SNB-78 = system: SNB-78
XF498 = system: XF498

Row | SMILES | GI50 (DMS-114) | GI50 (DMS-273) | GI50 (HOP-18) | GI50 (KM-20L2) | GI50 (LXFL 529) | GI50 (M19-MEL) | GI50 (RXF 631) | GI50 (SNB-78) | GI50 (XF498)
1 | Cc1ccc(NC(=O)CCC(=O)C2CC(=O)CCC2=O)cc1C (stereo not given) | > 100 µM (inactive) | > 100 µM (inactive) | > 100 µM (inactive) | > 100 µM (inactive) | > 100 µM (inactive) | > 100 µM (inactive) | > 100 µM (inactive) | > 100 µM (inactive) | –
2 | CN(/N=C/c1ccnc2ccccc12)c1c([N+](=O)[O-])cc([N+](=O)[O-])cc1[N+](=O)[O-] | 37.9 µM (inactive) | > 100 µM (inactive) | > 100 µM (inactive) | > 100 µM (inactive) | 48.4 µM (inactive) | > 100 µM (inactive) | – | 67.3 µM (inactive) | 70.1 µM (inactive)
3 | FC(F)(F)c1nc(Br)[nH]c1C(F)(F)F | 40.2 µM (inactive) | > 100 µM (inactive) | 28.8 µM (inactive) | 64.6 µM (inactive) | 92.3 µM (inactive) | > 100 µM (inactive) | 61.4 µM (inactive) | > 100 µM (inactive) | > 100 µM (inactive)
4 | C=C1C(=O)OC2/C=C(\C)C(O)/C=C\C(C)(O)CC(OC(=O)/C(C)=C/C)C12 (stereo not given) | > 48 µM (inactive) | 16.7 µM (inactive) | > 74.8 µM (inactive) | 13.2 µM (inactive) | 15.3 µM (inactive) | 17.5 µM (inactive) | 38.2 µM (inactive) | 34.2 µM (inactive) | 29.9 µM (inactive)
5 | COc1ccccc1OCc1nnc(SCC(=O)O)n1-c1ccccc1 | > 100 µM (inactive) | > 100 µM (inactive) | – | > 100 µM (inactive) | > 100 µM (inactive) | – | – | > 100 µM (inactive) | > 100 µM (inactive)
6 | CC(=O)O[C@H]1CC[C@@]2(C)C(=CC[C@@H]3C2CC[C@]2(C)Nc4oncc4CC32)C1 (stereo not given in full) | – | 26.9 µM (inactive) | – | 90.6 µM (inactive) | 13 µM (inactive) | 28.5 µM (inactive) | 33.5 µM (inactive) | – | 31.5 µM (inactive)
7 | CN/N=C(/CC(=O)c1sc(NNC(C)=O)nc1C)C(=O)Nc1ccc(OC)cc1OC | > 100 µM (inactive) | > 100 µM (inactive) | – | > 100 µM (inactive) | > 100 µM (inactive) | > 100 µM (inactive) | – | > 100 µM (inactive) | > 100 µM (inactive)
8 | O=C1c2ccc3c4ccccc4n(Cc4ccccc4)c3c2C(=O)N1c1ccccc1 | 17.9 µM (inactive) | 12.4 µM (inactive) | 12.1 µM (inactive) | 20.9 µM (inactive) | 14.3 µM (inactive) | 17.3 µM (inactive) | 14.5 µM (inactive) | 27.7 µM (inactive) | –
9 | NC(=O)c1ccccc1NC(=O)C(=O)Cc1nc2ccccc2nc1O | 94.6 µM (inactive) | > 100 µM (inactive) | – | > 100 µM (inactive) | > 100 µM (inactive) | > 100 µM (inactive) | > 100 µM (inactive) | – | –
10 | CCOC(=O)CC(NCc1ccc(/N=C/c2nc3ccc(C(F)(F)F)cc3nc2-c2ccccc2)cc1)C(=O)OCC (stereo not given) | > 68.5 µM (inactive) | > 64.1 µM (inactive) | 24.7 µM (inactive) | > 54.7 µM (inactive) | > 100 µM (inactive) | > 100 µM (inactive) | – | > 72.1 µM (inactive) | 14.2 µM (inactive)
11 | O=[N+]([O-])c1ccc(-c2csc(=[N+]3CCCCC3)s2)cc1 | 2.13 µM (inactive) | 28.8 µM (inactive) | > 100 µM (inactive) | 6.1 µM (inactive) | 5.93 µM (inactive) | 10.7 µM (inactive) | 87.5 µM (inactive) | 44.1 µM (inactive) | 19.5 µM (inactive)
12 | O=C(O)/C(=C/C=C/c1ccccc1)c1csc(-c2nc(/C(=C\C=C\c3ccccc3)C(=O)O)cs2)n1 | 23.7 µM (inactive) | – | – | 35.8 µM (inactive) | 24.7 µM (inactive) | 31.1 µM (inactive) | – | 27.2 µM (inactive) | –
13 | CCCCCN(CCCCC)C(=O)[C@H](CCC(=O)OCc1ccccc1)NC(=O)c1cc2ccccc2[nH]1 | > 100 µM (inactive) | > 100 µM (inactive) | > 100 µM (inactive) | > 100 µM (inactive) | > 100 µM (inactive) | – | > 100 µM (inactive) | > 100 µM (inactive) | –
14 | O=C(N/N=C(/CCN1CCCC1)CC(c1ccccc1)c1c(O)c2ccccc2oc1=O)c1ccncc1 (stereo not given) | – | – | > 100 µM (inactive) | > 100 µM (inactive) | > 100 µM (inactive) | 95.1 µM (inactive) | – | > 100 µM (inactive) | –
15 | COc1ccc2nc3ccccc3c(NCCCCN(C)CCCl)c2c1 | – | 0.0218 µM (active) | – | 0.0277 µM (active) | < 0.013 µM (active) | – | < 0.0185 µM (active) | 0.0596 µM (active) | 0.0369 µM (active)
16 | COC(=O)C(C(=O)C(=O)Nc1cccc([N+](=O)[O-])c1)c1nc2ccc([N+](=O)[O-])cc2nc1O (stereo not given) | > 100 µM (inactive) | > 100 µM (inactive) | > 100 µM (inactive) | > 100 µM (inactive) | > 100 µM (inactive) | > 100 µM (inactive) | > 100 µM (inactive) | > 100 µM (inactive) | > 100 µM (inactive)
17 | O=C(Nc1ccc(C(F)(F)F)cc1[N+](=O)[O-])C(=O)C1NC(=S)NC1=O (stereo not given) | > 100 µM (inactive) | > 100 µM (inactive) | > 100 µM (inactive) | > 100 µM (inactive) | > 100 µM (inactive) | > 100 µM (inactive) | 82.2 µM (inactive) | > 100 µM (inactive) | –
18 | C/C(COc1ccccc1)=N\NC(N)=S | 62.7 µM (inactive) | > 100 µM (inactive) | – | > 100 µM (inactive) | 44.5 µM (inactive) | > 100 µM (inactive) | – | > 100 µM (inactive) | 53.5 µM (inactive)
19 | C=CCCCCCCCC(O)C1C[C@H](O)C(CCCCC)O1 (stereo not given in full) | 17.3 µM (inactive) | 18.1 µM (inactive) | 17.9 µM (inactive) | – | 15.5 µM (inactive) | 19.1 µM (inactive) | – | 20 µM (inactive) | –
20 | COc1cc([C@@H]2OCC3C(c4ccc5c(c4)OCO5)OCC32)cc(OC)c1OC (stereo not given in full) | 35.5 µM (inactive) | 76.4 µM (inactive) | – | > 100 µM (inactive) | 43.1 µM (inactive) | > 100 µM (inactive) | – | > 100 µM (inactive) | 52.6 µM (inactive)
21 | COc1cc2c(c(OC)c1OC)-c1ccc(SC)c(=O)cc1[C@@H](NC(=O)C(F)(F)F)CC2 | – | < 0.01 µM (active) | 26.5 µM (inactive) | < 0.01 µM (active) | < 0.01 µM (active) | – | – | – | 0.0585 µM (active)
22 | C[N+](C)(C)CC(=O)N/N=C(\C(=O)NC1=C(Cl)C(=O)c2ccccc2C1=O)C(C#N)c1csc(-c2ccc([N+](=O)[O-])cc2)n1 (stereo not given) | > 100 µM (inactive) | > 100 µM (inactive) | > 100 µM (inactive) | > 100 µM (inactive) | > 100 µM (inactive) | > 100 µM (inactive) | > 100 µM (inactive) | > 100 µM (inactive) | > 100 µM (inactive)
23 | C[C@H]1CCC/C=C/[C@@H]2C[C@H](O)C[C@H]2[C@H](O)/C=C/C(=O)O1 [BREFELDIN A] | – | 0.0266 µM (active) | 2.81 µM (inactive) | 0.0041 µM (active) | 0.00877 µM (active) | – | 0.101 µM (active) | 0.00675 µM (active) | 0.00649 µM (active)

Reference: ChEMBL document CHEMBL1201862, “PubChem BioAssay data set” (2004)
